Assay results reported in ChEMBL document CHEMBL2413072, “Synthesis and in vitro anticancer studies of novel C-2 arylidene congeners of lantadenes” (2013).

Legend:
Assay type in all cases: functional
MDA-MB-231 = assay: Growth inhibition of human MDA-MB-231 cells assessed as cell growth at 10^-6 M by sulforhodamine B assay; conditions: read-out: Activity
M14 [1] = assay: Growth inhibition of human M14 cells assessed as cell growth at 10^-8 M by sulforhodamine B assay; conditions: read-out: Activity
M14 [2] = assay: Growth inhibition of human M14 cells by sulforhodamine B assay
A498 = assay: Growth inhibition of human A498 cells assessed as cell growth at 10^-8 M by sulforhodamine B assay; conditions: read-out: Activity
SK-OV-3 [3] = assay: Growth inhibition of human SKOV3 cells assessed as cell growth at 10^-6 M by sulforhodamine B assay; conditions: read-out: Activity
K562 [4] = assay: Growth inhibition of human K562 cells assessed as cell growth at 10^-6 M by sulforhodamine B assay; conditions: read-out: Activity
CAKI-1 [5] = assay: Growth inhibition of human CAKI-1 cells by sulforhodamine B assay
[6] = Growth inhibition of human Hs 578T cells assessed as cell growth at 10^-7 M by sulforhodamine B assay; conditions: read-out: Activity
NCI-H460 = assay: Growth inhibition of human NCI-H460 cells assessed as cell growth at 10^-8 M by sulforhodamine B assay; conditions: read-out: Activity
MCF7 = assay: Growth inhibition of human MCF7 cells assessed as cell growth at 10^-8 M by sulforhodamine B assay; conditions: read-out: Activity
Malme-3M [7] = assay: Growth inhibition of human MALME-3M cells assessed as cell growth at 10^-7 M by sulforhodamine B assay; conditions: read-out: Activity
RPMI-8226 = assay: Growth inhibition of human RPMI8226 cells assessed as cell growth at 10^-6 M by sulforhodamine B assay; conditions: read-out: Activity
NCI-H322M = assay: Growth inhibition of human NCI-H322M cells assessed as cell growth at 10^-8 M by sulforhodamine B assay; conditions: read-out: Activity
SK-MEL-5 = assay: Growth inhibition of human SK-MEL-5 cells by sulforhodamine B assay
Malme-3M [8] = assay: Growth inhibition of human MALME-3M cells assessed as cell growth at 10^-4 M by sulforhodamine B assay; conditions: read-out: Activity
SK-OV-3 [9] = assay: Growth inhibition of human SKOV3 cells assessed as cell growth at 10^-4 M by sulforhodamine B assay; conditions: read-out: Activity
SK-OV-3 [10] = assay: Growth inhibition of human SKOV3 cells assessed as cell growth at 10^-8 M by sulforhodamine B assay; conditions: read-out: Activity
SNB-19 = assay: Growth inhibition of human SNB19 cells assessed as cell growth at 10^-4 M by sulforhodamine B assay; conditions: read-out: Activity
HCT-15 = assay: Growth inhibition of human HCT15 cells by sulforhodamine B assay
MDA-MB-435 = assay: Growth inhibition of human MDA-MB-435 cells assessed as cell growth at 10^-4 M by sulforhodamine B assay; conditions: read-out: Activity
COLO 205 = assay: Growth inhibition of human COLO205 cells by sulforhodamine B assay
K562 [11] = assay: Growth inhibition of human K562 cells assessed as cell growth at 10^-8 M by sulforhodamine B assay; conditions: read-out: Activity
MOLT-4 = assay: Growth inhibition of human MOLT4 cells assessed as cell growth at 10^-4 M by sulforhodamine B assay; conditions: read-out: Activity
SNB-75 = assay: Growth inhibition of human SNB75 cells by sulforhodamine B assay
OVCAR-4 = assay: Growth inhibition of human OVCAR4 cells assessed as cell growth at 10^-6 M by sulforhodamine B assay; conditions: read-out: Activity
OVCAR-5 [12] = assay: Growth inhibition of human OVCAR5 cells by sulforhodamine B assay
OVCAR-5 [13] = assay: Growth inhibition of human OVCAR5 cells assessed as cell growth at 10^-4 M by sulforhodamine B assay; conditions: read-out: Activity
HOP-62 = assay: Growth inhibition of human HOP62 cells assessed as cell growth at 10^-8 M by sulforhodamine B assay; conditions: read-out: Activity
SR = assay: Growth inhibition of human SR cells by sulforhodamine B assay
NCI-H226 = assay: Growth inhibition of human NCI-H226 cells by sulforhodamine B assay
KM12 = assay: Growth inhibition of human KM12 cells assessed as cell growth at 10^-8 M by sulforhodamine B assay; conditions: read-out: Activity
PC-3 [14] = assay: Growth inhibition of human PC3 cells by sulforhodamine B assay
U-251 = assay: Growth inhibition of human U251 cells by sulforhodamine B assay
OVCAR-8 = assay: Growth inhibition of human OVCAR8 cells assessed as cell growth at 10^-4 M by sulforhodamine B assay; conditions: read-out: Activity
CAKI-1 [15] = assay: Growth inhibition of human CAKI-1 cells assessed as cell growth at 10^-6 M by sulforhodamine B assay; conditions: read-out: Activity
NCI-H23 = assay: Growth inhibition of human NCI-H23 cells assessed as cell growth at 10^-6 M by sulforhodamine B assay; conditions: read-out: Activity
M14 [16] = assay: Growth inhibition of human M14 cells assessed as cell growth at 10^-6 M by sulforhodamine B assay; conditions: read-out: Activity
PC-3 [17] = assay: Growth inhibition of human PC3 cells assessed as cell growth at 10^-7 M by sulforhodamine B assay; conditions: read-out: Activity
[18] = read-out: LC50 (the source's name)
[19] = read-out: pLC50 (the source's name) (converted)

Molecule `CC1(C)C[C@@H](O)[C@]2(C(=O)O)CC[C@]3(C)C(=CC[C@@H]4[C@@]5(C)C/C(=C\C=C\c6ccccc6)C(=O)C(C)(C)[C@@H]5CC[C@]43C)[C@@H]2C1` has a growth at 1 µM (MDA-MB-231) of 92%, a growth at 0.01 µM (M14 [1]) of 97% and a GI50 (M14 [2]; read-out: GI50) of 3.74 µM. The CC50 (M14 [2]; [18]) was 52 µM, the TGI (M14 [2]; read-out: TGI) was 15.8 µM and the GI50 (M14 [2]; read-out: pGI50 (converted)) was 3.72 µM. The CC50 (M14 [2]; [19]) was 52.5 µM, the TGI (M14 [2]; read-out: pTGI (converted)) was 15.8 µM and the growth at 0.01 µM (A498) was 82%. For the same molecule, the growth at 1 µM (SK-OV-3 [3]) was 96%, the growth at 1 µM (K562 [4]) was 98% and the GI50 (CAKI-1 [5]; read-out: GI50) was 3.57 µM. For the same molecule, the CC50 (CAKI-1 [5]; [18]) was > 100 µM, the TGI (CAKI-1 [5]; read-out: TGI) was 17.7 µM and the GI50 (CAKI-1 [5]; read-out: pGI50 (converted)) was 3.55 µM. The CC50 (CAKI-1 [5]; [19]) was > 100 µM, the TGI (CAKI-1 [5]; read-out: pTGI (converted)) was 17.8 µM and the growth at 0.1 µM [6] was 92%. For the same molecule, the growth at 0.01 µM (NCI-H460) was 102%, the growth at 0.01 µM (MCF7) was 95% and the growth at 0.1 µM (Malme-3M [7]) was 93%. It also gave a growth at 1 µM (RPMI-8226) of 92%, a growth at 0.01 µM (NCI-H322M) of 98% and a GI50 (SK-MEL-5; read-out: GI50) of 1760 nM. It also gave a CC50 (SK-MEL-5; [18]) of 6.11 µM, a TGI (SK-MEL-5; read-out: TGI) of 3.28 µM and a GI50 (SK-MEL-5; read-out: pGI50 (converted)) of 1740 nM. For the same molecule, the CC50 (SK-MEL-5; [19]) was 6.17 µM, the TGI (SK-MEL-5; read-out: pTGI (converted)) was 3.31 µM and the growth at 100 µM (Malme-3M [8]) was -60%. The growth at 100 µM (SK-OV-3 [9]) was -84%, the growth at 0.01 µM (SK-OV-3 [10]) was 96% and the growth at 100 µM (SNB-19) was -91%. For the same molecule, the GI50 (HCT-15; read-out: GI50) was 3.22 µM, the LC50 (50% lethal concentration) (HCT-15; read-out: LC50) was 45.1 µM and the TGI (HCT-15; read-out: TGI) was 11.9 µM. The GI50 (HCT-15; read-out: pGI50 (converted)) was 3.24 µM, the LC50 (50% lethal concentration) (HCT-15; read-out: pLC50 (converted)) was 44.7 µM and the TGI (HCT-15; read-out: pTGI (converted)) was 12 µM. The growth at 100 µM (MDA-MB-435) was -43%, the GI50 (COLO 205; read-out: GI50) was 1970 nM and the LC50 (COLO 205; read-out: LC50) was 6.36 µM. It also gave a TGI (COLO 205; read-out: TGI) of 3.54 µM, a GI50 (COLO 205; read-out: pGI50 (converted)) of 2000 nM and an LC50 (COLO 205; read-out: pLC50 (converted)) of 6.31 µM. The TGI (COLO 205; read-out: pTGI (converted)) was 3.55 µM, the growth at 0.01 µM (K562 [11]) was 114% and the growth at 100 µM (MOLT-4) was -28%. The GI50 (SNB-75; read-out: GI50) was 4.27 µM, the CC50 (SNB-75; [18]) was 63.7 µM and the TGI (SNB-75; read-out: TGI) was 20.9 µM. It also gave a GI50 (SNB-75; read-out: pGI50 (converted)) of 4.27 µM, a CC50 (SNB-75; [19]) of 63.1 µM and a TGI (SNB-75; read-out: pTGI (converted)) of 20.9 µM. It also gave a growth at 1 µM (OVCAR-4) of 89%, a GI50 (OVCAR-5 [12]; read-out: GI50) of 2970 nM and a CC50 (OVCAR-5 [12]; [18]) of 33.6 µM. The TGI (OVCAR-5 [12]; read-out: TGI) was 10.5 µM, the GI50 (OVCAR-5 [12]; read-out: pGI50 (converted)) was 2950 nM and the CC50 (OVCAR-5 [12]; [19]) was 33.9 µM. It also gave a TGI (OVCAR-5 [12]; read-out: pTGI (converted)) of 10.5 µM, a growth at 100 µM (OVCAR-5 [13]) of -97% and a growth at 0.01 µM (HOP-62) of 93%. The GI50 (SR; read-out: GI50) was 2480 nM, the CC50 (SR; [18]) was > 100 µM and the TGI (SR; read-out: TGI) was 6.91 µM. For the same molecule, the GI50 (SR; read-out: pGI50 (converted)) was 2450 nM, the CC50 (SR; [19]) was > 100 µM and the TGI (SR; read-out: pTGI (converted)) was 6.92 µM. It also gave a GI50 (NCI-H226; read-out: GI50) of 2780 nM, an LC50 (NCI-H226; read-out: LC50) of 56.2 µM and a TGI (NCI-H226; read-out: TGI) of 12.8 µM. The GI50 (NCI-H226; read-out: pGI50 (converted)) was 2750 nM, the LC50 (NCI-H226; read-out: pLC50 (converted)) was 56.2 µM and the TGI (NCI-H226; read-out: pTGI (converted)) was 12.9 µM. The growth at 0.01 µM (KM12) was 101%, the GI50 (PC-3 [14]; read-out: GI50) was 3.03 µM and the CC50 (PC-3 [14]; [18]) was 63.7 µM. For the same molecule, the TGI (PC-3 [14]; read-out: TGI) was 16.3 µM, the GI50 (PC-3 [14]; read-out: pGI50 (converted)) was 3.02 µM and the CC50 (PC-3 [14]; [19]) was 63.1 µM. The TGI (PC-3 [14]; read-out: pTGI (converted)) was 16.2 µM, the GI50 (U-251; read-out: GI50) was 2580 nM and the CC50 (U-251; [18]) was 43.2 µM. For the same molecule, the TGI (U-251; read-out: TGI) was 10.1 µM, the GI50 (U-251; read-out: pGI50 (converted)) was 2570 nM and the CC50 (U-251; [19]) was 43.7 µM. It also gave a TGI (U-251; read-out: pTGI (converted)) of 10.2 µM, a growth at 100 µM (OVCAR-8) of -67% and a growth at 1 µM (CAKI-1 [15]) of 92%. It also gave a growth at 1 µM (NCI-H23) of 95%, a growth at 1 µM (M14 [16]) of 91% and a growth at 0.1 µM (PC-3 [17]) of 96%.
